Like-named read-outs stand apart in the source and are kept apart here.
Experiments:
[1] = target: anti-vancomycin Fab fragment; assay: BIAcore solution competition, equilibrium dissociation constant; type: binding, mouse
Procedure: Biosensor surfaces were regenerated after each injection with successive 1 minute pulses of 6 M, 6M, and 1.5 M guanidine hydrochloride. Initial rates of binding of anti-vancomycin Fab fragment to the biosensor surface were measured over a 15 second window beginning 20 seconds postinjection. Data was evaluated by non-linear regression analysis using the solution affinity model built into BIAevaluation 3.0 software (BIAcore, Inc).
The binding affinities of several vancomycin analogs and tracers for anti-vancomycin Fab fragment were determined from solution competition experiments carried out on a BIAcore 2000. Initially, known concentrations of anti-vancomycin Fab fragment (0-22 nM) were injected over the aminoalkyl vancomycin biosensor surface. The initial rate of binding for each anti-vancomycin Fab fragment concentration was obtained by averaging the observed binding rate over a […] window beginning 20 seconds post injection. Data from the first 20 seconds of each sensorgram were omitted due to sample dispersion effects at the start of injections. A plot of initial binding rate versus concentration of anti-vancomycin Fab fragment was fit using a 4-parameter logistic (general model in BIAevaluation 3.0) providing a standard curve. […] A fixed concentration of anti-vancomycin Fab fragment (20 nM) was then mixed with twelve concentrations of each vancomycin analog or tracer and allowed to reach equilibrium. The equilibrium mixtures were individually injected over the aminoalkyl vancomycin biosensor surface, and the concentration of free anti-vancomycin Fab fragment remaining was quantitated by determination of the initial rate of binding to the biosensor surface as described above. A plot of free anti-vancomycin Fab fragment versus total concentration of added analog or tracer provides a competition curve. […] The data points represent the experimentally determined concentrations of free anti-vancomycin Fab fragment in equilibrium solutions at a given concentration of soluble analog or tracer. The curves represent the best nonlinear fit of the data using equation 1 (solution affinity model in BIAevaluation software) below: [formula]
where Fabτ is the concentration of free anti-vancomycin Fab fragment in equilibrium solutions, Fabτ is the total concentration of anti-vancomycin Fab fragment in solution (20 nM), A is the total concentration of added vancomycin analog or tracer, and KD is the equilibrium dissociation constant for the binding of the vancomycin analog or tracer to anti-vancomycin Fab fragment in solution.

[2] = 0.5 μM
Procedure: (§1) Briefly, a continuous flow of HBS buffer at 10 μL/minute was initiated over the biosensor surface. The carboxymethylated dextran matrix on the sensor surface was activated by a 3.5 minute injection of a solution of 0.05 M HNS and 0.2 M EDAC. […] Blank surfaces were generated under identical conditions omitting the ligand immobilization step.
For these studies, an (N^ε-acetyl)KDADA tripeptide containing an aminocaproate linker from the amino terminus was immobilized via amine coupling to an activated carboxymethyl dextran surface of a CM-5 sensor chip.

[3] = test system: anti-vancomycin Fab fragment; settings: substance immobilized on CM-5 sensor chip
Procedure: as §1
Initial attempts to generate a biosensor surface involved immobilization of vancomycin to the activated carboxymethyl dextran surface of a CM-5 sensor chip through the primary amine of the vancosamine sugar moiety.

[4] = cited from earlier work
[5] = in solution, 20 nM Fab fragment, read-out: Equilibrium Dissociation Constant (KD)

Compound | Kd [1, 5] [nM] | instrumental response at equilibrium [2] | binding capacity (Rumax) of biosensor surface [3] | half life ([4]; normal patients) [h] | half life ([4]; patients with renal insufficiency) [h] | Kd ([1]; in the presence of (Nα,Nε-diacetyl)KDADA tripeptide (500 μM), read-out: KD) [nM]
CNC(CC(C)C)C(=O)NC1C(=O)NC(CC(N)=O)C(=O)NC2C(=O)NC3C(=O)NC(C(=O)NC(C(=O)O)c4cc(O)cc(O)c4-c4cc3ccc4O)C(O)c3ccc(c(Cl)c3)Oc3cc2cc(c3OC2OC(CO)C(O)C(O)C2OC2CC(C)(NC(=O)CCCN(C(=O)c3c4ccccc4[n+](CCCS(=O)(=O)[O-])c4ccccc34)S(=O)(=O)c3ccc(C)cc3)C(O)C(C)O2)Oc2ccc(cc2Cl)C1O (centres unmarked) [compound 15] | 1200 ± 100 | – | – | – | – | –
CC(C)CC(C(=O)NC1C(=O)NC(CC(N)=O)C(=O)NC2C(=O)NC3C(=O)NC(C(=O)NC(C(=O)O)c4cc(O)cc(O)c4-c4cc3ccc4O)C(O)c3ccc(c(Cl)c3)Oc3cc2cc(c3OC2OC(CO)C(O)C(O)C2OC2CC(C)(N)C(O)C(C)O2)Oc2ccc(cc2Cl)C1O)N(C)C(=O)CCCCC1SCC2NC(=O)NC21 (centres unmarked) [compound 16] | ≤ 0.2 | – | – | – | – | –
CN[C@H](CC(C)C)C(=O)N[C@H]1C(=O)N[C@@H](CC(N)=O)C(=O)N[C@H]2C(=O)N[C@H]3C(=O)N[C@H](C(=O)N[C@H](C(=O)O)c4cc(O)cc(O)c4-c4cc3ccc4O)[C@H](O)c3ccc(c(Cl)c3)Oc3cc2cc(c3O[C@@H]2O[C@H](CO)[C@@H](O)[C@H](O)[C@H]2O[C@H]2C[C@](C)(N)[C@H](O)[C@H](C)O2)Oc2ccc(cc2Cl)[C@H]1O [vancomycin (1), vancomycin] | ≤ 0.2 | approximately 50 Rus | minimal binding capacity | 5 to 11 | 48 to 120 | ≤ 0.2

From US20040209318A1, “Reagents and methods for the detection and quantification of vancomycin in bilogical fluids” (priority 1995, published 2004)
